In US11786555B2, “RAR selective agonists in combination with immune modulators for cancer immunotherapy” (IO THERAPEUTICS, INC., priority 2017, dated 2023):

Columns and labels:
[1] = system: CD4+ T cells; test: in vivo T cell differentiation in mice (blood and spleen); set-up: species or system mouse; settings: 100 μg every other day for 10 days
Procedure: To expand on the finding above, the in vivo effects of a RARα agonist on T cell differentiation was evaluated in a mouse model. Mice were treated with 100 μg of compound IRX5183 or an equivalent volume of DMSO (vehicle control) every other day for 10 days. Lymphocytes from the blood and spleen were then isolated and FoxP3 expression in CD4^+ T cells was assessed.

[2] = biological target: T1, RARγ (Homo sapiens, UniProt P13631); test: displacement assay, agonist binding affinity; settings: read-out: Binding Affinities for RARγ
T1 sequence (P13631 1-454): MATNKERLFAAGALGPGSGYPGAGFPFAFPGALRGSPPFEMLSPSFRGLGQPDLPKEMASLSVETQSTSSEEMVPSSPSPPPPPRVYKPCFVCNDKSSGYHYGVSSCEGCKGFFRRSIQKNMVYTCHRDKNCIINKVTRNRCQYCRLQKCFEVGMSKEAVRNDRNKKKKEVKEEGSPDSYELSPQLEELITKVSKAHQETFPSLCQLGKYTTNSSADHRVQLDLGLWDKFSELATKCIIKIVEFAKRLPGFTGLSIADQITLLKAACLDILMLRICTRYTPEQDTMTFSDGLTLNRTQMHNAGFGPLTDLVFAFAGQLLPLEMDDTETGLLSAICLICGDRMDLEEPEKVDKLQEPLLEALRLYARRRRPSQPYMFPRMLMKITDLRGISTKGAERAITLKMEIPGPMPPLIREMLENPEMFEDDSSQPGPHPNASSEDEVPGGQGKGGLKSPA
Procedure: (§1) Binding assays are performed using a classic competition assay format in which cloned receptor RAR molecules are first loaded with radiolabeled all-trans-retinoic acid […] and then the amount of radioactivity liberated with increasing concentration of test compound is measured.

[3] = biological target: T2, RARβ (Homo sapiens, UniProt P10826); test: displacement assay, agonist binding affinity; settings: read-out: Binding Affinities for RARβ
T2 construct: cloned receptor RAR molecules are first loaded with radiolabeled all-trans-retinoic acid
T2 sequence (P10826 1-455): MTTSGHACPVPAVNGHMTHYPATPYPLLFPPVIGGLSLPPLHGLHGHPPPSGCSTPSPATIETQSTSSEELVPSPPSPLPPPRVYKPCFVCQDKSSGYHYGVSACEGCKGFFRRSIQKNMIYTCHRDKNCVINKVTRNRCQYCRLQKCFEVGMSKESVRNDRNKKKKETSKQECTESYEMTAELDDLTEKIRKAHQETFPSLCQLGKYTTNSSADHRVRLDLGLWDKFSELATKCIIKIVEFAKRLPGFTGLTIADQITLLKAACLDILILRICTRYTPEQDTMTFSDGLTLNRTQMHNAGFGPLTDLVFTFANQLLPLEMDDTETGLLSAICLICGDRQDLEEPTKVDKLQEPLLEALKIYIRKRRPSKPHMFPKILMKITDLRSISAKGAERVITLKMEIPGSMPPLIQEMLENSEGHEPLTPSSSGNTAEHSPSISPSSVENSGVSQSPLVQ
Procedure: as §1

[4] = system: naive CD4+ CD25− FoxP3− cells; test: in vitro Th17 cell differentiation; type: cell-based, mouse; settings: 0.1 nM
Procedure: To determine whether a RARα agonist could affect T cell differentiation, T cells were incubated with a RARα agonist to determine its effect on Foxp3 expression. Naive CD4^+ CD25^− FoxP3^− cells were purified from a Foxp3-GFP mouse using flow cytometry by sorting and isolating based upon a GFP^− phenotype. These cells were activated polyclonally with αCD3 in vitro in the presence of IL-2 and TGF-β. These cells were then cultured in media with various concentrations of compound IRX5183 (a RARα agonist) and the expression of FoxP3-GFP was analyzed by flow cytometry. The RARα agonist compound IRX5183 enhanced differentiation of immunosuppressive Treg cells and inhibited differentiation of inflammatory TH17 cells from naïve T cells in vitro (Table 2).

[5] = system: RARα; test: transactivation assay, agonist activity; settings: RARα versus RARβ and RARγ, FIG. 1
Description: Transactivation assays employ expression plasmids encoding the full length receptors RARα, RARβ, and RARγ. Reporter plasmids containing the herpes virus thymidine kinase promoter and the appropriate retinoic acid receptor response element (RAREs) are positioned upstream of an open coding region encoding firefly luciferase.

[6] = system: H929 Luc+ cells with WT or Smo-KO stroma; test: subcutaneous xenograft model of MM-niche interactions, bioluminescence; type: in vivo, mouse
Procedure: FIG. 9 depicts bioluminescent images of mice showing tumor burden during 4 weeks of treatment with IRX (10 mg/kg), BTZ (0.5 mg/kg), or the combination. Anterior tumors consisted of a combination of MM.1S luciferase^+ cells and Smo^FI/FI BM stroma cells transduced with a control vector (WT BM stroma). Posterior tumors consisted of a combination of MM.1S luciferase^+ cells and Smo^FI/FI BM stroma cells transduced with Cre-recombinase (Smo KO BM stroma).
FIG. 10 depicts the fold change in bioluminescence (photons/second) of tumors during 4 weeks of treatment. The change in bioluminescence for each tumor […].
Mouse xenografts. 1×10^6 H929 Luc+ cells and 1×10^6 mouse BM stromal cells were resuspended in 100 μl […]®, diluted with RPMI (1:1), and injected subcutaneously into 16-week-old male NSG mice. After 4 days, treatment with BTZ (0.5 mg/kg i.p. twice weekly) and IRX (10 mg/kg i.p. daily) was initiated. Tumor burden was assessed by bioluminescence using the In Vivo Imaging System (PerkinElmer). For imaging, mice were exposed to 120 mg/kg D-luciferin via intraperitoneal injection […] before imaging and were anesthetized using isoflurane. Images were analyzed with Living Image Software, version 2.5 (PerkinElmer), and data were quantified as photons/second.
To study to what extent an RA-low environment created by the BM stroma and enhanced by MM cells via paracrine Hedgehog signaling contributes to BTZ resistance, a xenograft model of MM-niche interactions was developed. Each mouse carried 2 subcutaneous tumors consisting of H929 Luc+ cells and either WT (anterior tumors) or Smo-KO stroma (posterior tumors). Mice were treated with IRX (10 mg/kg i.p. daily), BTZ (0.5 mg/kg i.p. twice weekly), or a combination of both. The growth of tumors bearing WT or Smo-KO stroma was not different in untreated or IRX-treated groups (FIGS. 9 and 10). […] While some tumors in the treatment group receiving combined IRX and BTZ appeared to have regressed completely, even after anatomical study, this was not the case for all the mice in this group.

[7] = system: OCI-AML3 cells; test: CFU experiments, off and on stroma; type: cell-based; settings: 10^−6 M ATRA, IRX5183, or 10^−7 M AM80
Description: (§2) Data across three independent experiments.

[8] = system: Kasumi-1 cells; test: CFU experiments, off and on stroma; type: cell-based; settings: 10^−6 M ATRA, IRX5183, or 10^−7 M AM80
Description: as §2

[9] = system: NB4 cells; test: CFU experiments, off and on stroma; type: cell-based; settings: 10^−7 M ATRA, IRX5183, or 10^−8 M AM80
Description: as §2

**Q.** How did the “Foxp3+ Expression” value ([1]; Blood) turn out when `CC1(C)CCC(C)(C)c2c1cc(C(=O)Nc1cc(F)c(C(=O)O)c(F)c1)c(O)c2Cl` [IRX5183] was run?
**A.** Its value is 4.3%.

**Q.** And the “Foxp3+ Expression” value ([1]; Spleen)?
**A.** The value was 25%.

**Q.** What about the Kd [2] of the same compound?
**A.** The Kd was > 10 µM.

**Q.** What about the Kd [3] of the same compound?
**A.** Its Kd is > 10 µM.

**Q.** What about the “Th17 cell Percent Differentiation” value [4] of the same compound?
**A.** The value was 32%.

**Q.** And the “agonist activity (transactivation)” value [5]?
**A.** The value was “specifically activates RARα”.

**Q.** And the “growth of tumors bearing WT versus Smo-KO stroma” value ([6]; IRX 10 mg/kg i.p. daily)?
**A.** Its value is “not different”.

**Q.** What about the “tumor response (bioluminescence)” value ([6]; combination of IRX and BTZ, WT or Smo-KO stroma) of the same compound?
**A.** Its value is “significant and equivalent response, regardless of the phenotype of the stromal compartment”.

**Q.** And the “clonogenic growth (CFU), differentiation and elimination of AML” value [7]?
**A.** Its value is “decrease in clonogenic growth compared to control”.

**Q.** What about the “clonogenic growth (CFU), differentiation and elimination of AML” value [8] of the same compound?
**A.** The value was “decrease in clonogenic growth compared to control”.

**Q.** And the “clonogenic growth (CFU), differentiation and elimination of AML” value [9]?
**A.** The value was “decrease in clonogenic growth compared to control”.
